In US20220218630A1, “METHODS AND FORMULATIONS FOR TREATING VISION DISORDERS” (JeniVision Inc., priority 2019, published 2022):

Key:
[1] = tested on: monkey longitudinal ciliary muscle; assay: Isolated monkey longitudinal ciliary muscle preparation contracted by carbachol (tissue bath); format: cell-based; conditions: for contractile effects of a further application of carbachol following wash-out: after wash-out of drug, carbachol re-applied; for effect on ciliary muscle tone: drug added cumulatively 10^−8 M to 10^−5 M
Experimental: A total of 4 longitudinal strips of ciliary muscle were obtained from one monkey eye. Four tissue baths were used concurrently for each experiment. The monkey ciliary muscle preparations were incubated in Krebs bicarbonate buffer, aerated with 95% O2/5% CO2, containing 10^−6 M indomethacin. The preparations were placed under 200 mg tension with adjustment and allowed to equilibrate for 30 minutes. The temperature was maintained at 37° C. throughout the experiment. After equilibration, the four tissue baths received (50 μL×10^−3M) 10^−6 M carbachol (sufficient to produce a mid-level 40-60% maximal response). If 10^−6 M carbachol was insufficient to cause a meaningful contraction, then (50 μL×3×10^−3M) 3×10^−6 M or (50 μL×10^−2M) 10^−5M was used. The contractile response was allowed to become stable. Tissue tension was recorded on a multi-channel electrophysiological recorder.
When cumulative addition of the drug solutions was completed, the drugs were washed-out by flushing through with buffer three times at a selected volume. Four tissue baths again received 10^−6 M (or selected concentration) carbachol and a stable contractile response was established.

[2] = Ocular bioavailability following application to the periorbital skin of cynomolgus monkeys (LC/MS/MS); format: in vivo; conditions: for tiotropium level in ciliary muscle / tiotropium level in plasma: 208 μg to periorbital skin of one eye
Experimental: The animals were euthanized at predetermined time points post-dosing: 1, 2, 4, 24 hours. A blood sample and ocular tissue specimens were then taken and prepared for LC/MS/MS analysis.

[3] = carbachol pre-contracted preparation

SMILES | contractile effects of a further application of carbachol following wash-out [1] | effect on ciliary muscle tone [1, 3] | magnitude of relaxation ([1]; carbachol pre-contracted preparation, tiotropium compared with salmeterol) | tiotropium level in ciliary muscle ([2]; 1 hr post-dosing) [nM] | tiotropium level in plasma ([2]; 1 hr post-dosing) [nM] | tiotropium level in ciliary muscle ([2]; 2 hr post-dosing) [nM] | tiotropium level in plasma ([2]; 2 hr post-dosing) | tiotropium level in ciliary muscle ([2]; 4 hr post-dosing) [nM] | tiotropium level in plasma ([2]; 4 hr post-dosing) | tiotropium level in ciliary muscle ([2]; 24 hr post-dosing) [nM] | tiotropium level in plasma ([2]; 24 hr post-dosing) | systemic exposure ([2]; periorbital skin application, non-optimized aqueous formulations) | access to the ciliary muscle ([2]; cynomolgus monkey, in vivo) | systemic exposure ([2]; cynomolgus monkey, in vivo)
C[N+]1(C)[C@@H]2C[C@@H](OC(=O)C(O)(c3cccs3)c3cccs3)C[C@H]1[C@@H]1O[C@@H]12 [tiotropium] | blunted | dose-related decrease | greater than that recorded for salmeterol | 49 | 4.5 | 77 | BLQ | 5.4 | BLQ | 0 | BLQ | minimal | – | –
OCc1cc(C(O)CNCCCCCCOCCCCc2ccccc2)ccc1O (stereo not shown) [salmeterol] | blunted | dose-related decrease | – | – | – | – | – | – | – | – | – | – | pharmacologically active concentrations | absent
